Tests used:
Assay type in all cases: physicochemical
[1] = Hygroscopicity: moisture absorption weight gain in artificial climate box; conditions: temperature 25° C., relative humidity 75%
Description: Specific test method: A dry glass weighing bottle with plug (outer diameter 50 mm, height 15 mm) was placed in an artificial climate box (temperature 25° C., relative humidity 75%) one day before the test, and was accurately weighed (m1). An appropriate amount of test sample was spread in the weighing bottle (thickness of test sample is generally about 1 mm), and it was accurately weighed (m2). The weighing bottle was opened and placed with the bottle cap under the above-mentioned constant temperature and humidity conditions. The weighing bottle was taken out at 5 min, 10 min, 20 min, 30 min, 60 min, 120 min and 180 min respectively, and accurately weighed (m3). The weight gain percentage was calculated according to the calculation formula: weight gain percentage=100%× (m3−m2)/(m2−m1).

[2] = Fluidity and repose angle before and after open storage at 25° C./75% RH for 0~3 h
Description: (§1) Study method: 5 g of sample was weighed into a weighing dish (60*30 mm), and placed in an open position at 25° C./75% RH to observe the moisture-proof effect for 0˜3 h.

[3] = Score of fluidity, adhesiveness and deliquescence at 25° C./75% RH
Description: as §1
(§2) See Table 3-1 for the scoring standards of some examples. See Table 3-2 for the score results of fluidity, adhesiveness and deliquescence of moisture-proof L-α-glycerylphosphorylcholine.

[4] = Passing rate of 20-mesh sieve at 25° C./75% RH
Description: as §1, §2

[5] = after open placing at 25° C./75% RH, 3 h
[6] = before placing at 25° C./75% RH

Question: Which weight gain percentage ([1]; 5 min) does the source give for `C[N+](C)(C)CCOP(=O)([O-])OC[C@H](O)CO` [Raw material 1, L-α-glycerylphosphorylcholine] here?
Answer: 3.0%

Question: And the weight gain percentage ([1]; 10 min)?
Answer: 4.2%

Question: And the weight gain percentage ([1]; 20 min)?
Answer: 7.4%

Question: What about the weight gain percentage ([1]; 30 min) of the same molecule?
Answer: 9.5%

Question: And the weight gain percentage ([1]; 60 min)?
Answer: 12.3%

Question: What about the weight gain percentage ([1]; 120 min) of the same molecule?
Answer: 14.6%

Question: And the weight gain percentage ([1]; 180 min)?
Answer: 18.5%

Question: What does the source list for `C[N+](C)(C)CCOP(=O)([O-])OC[C@H](O)CO` [Raw material 2, L-α-glycerylphosphorylcholine]?
Answer: weight gain percentage ([1]; 5 min): 3.2%; weight gain percentage ([1]; 10 min): 4.1%; weight gain percentage ([1]; 20 min): 7.2%; weight gain percentage ([1]; 30 min): 9.4%; weight gain percentage ([1]; 60 min): 12.6%; weight gain percentage ([1]; 120 min): 14.4%; weight gain percentage ([1]; 180 min): 18.7%

Question: Which results are given for `C[N+](C)(C)CCOP(=O)([O-])OC[C@H](O)CO` [Raw material, L-α-glycerylphosphorylcholine]?
Answer: Appearance and fluidity, After [2, 5]: All deliquescent and; Repose angle, After [2, 5]: unmeasurable; Appearance and fluidity, Before [2, 6]: Crystalloid/particle, good; Repose angle, Before [2, 6]: 41°; score of fluidity, adhesiveness and deliquescence ([3]; 5 min): 9; score of fluidity, adhesiveness and deliquescence ([3]; 10 min): 0; score of fluidity, adhesiveness and deliquescence ([3]; 20 min): 0; score of fluidity, adhesiveness and deliquescence ([3]; 30 min): 0; score of fluidity, adhesiveness and deliquescence ([3]; 60 min): 0; score of fluidity, adhesiveness and deliquescence ([3]; 120 min): 0; score of fluidity, adhesiveness and deliquescence ([3]; 180 min): 0; passing rate of 20-mesh sieve ([4]; 5 min): 97%; passing rate of 20-mesh sieve ([4]; 10 min): 35%; passing rate of 20-mesh sieve ([4]; 20 min): 24%; passing rate of 20-mesh sieve ([4]; 30 min): 2%; passing rate of 20-mesh sieve ([4]; 60 min): 0%; passing rate of 20-mesh sieve ([4]; 120 min): 0%; passing rate of 20-mesh sieve ([4]; 180 min): 0%

Reference: US20260165974A1, “Moisture-proof L-a-glycerylphosphorylcholine” (NANJING NUTRABUILDING BIO-TECH CO., LTD., priority 2023, published 2026)
